Data: patent US20250143297A1, “Arthropod Control Compositions” (FIRMENICH SA, priority 2022, published 2025)

Key:
Aedes aegypti [1] = assay: Warm Body assay, repellence of mosquito landing on treated warm body; type: in vivo; conditions: for reduction of the number of mosquito landing: since the dose of 0.0016%
Anopheles gambiae = assay: as above; type: in vivo
Procedure: Anopheles gambiae is also a model organism as it is anthropophilic and transmits malaria.
The controlling effect according to the present invention was assessed using an adapted Warm Body assay as defined in Kröber T, Kessler S, Frei J, Bourquin M, Guerin PM. 2010. J Am Mosq Control Assoc. 26:381-386. In this in-vitro assay the number of mosquito landing on a warm body, simulating an attractive host treated with the tested stimuli, was measured in order to assess the repellence effect.
On the sandblasted glass Petri dish covering the warm body (28.3 cm^2), 100 μL of the compounds diluted at different concentrations in ethanol was applied. The number of mosquito landing on the warm body was counted for each stimulus and pure ethanol (solvent) as control.

Aedes aegypti [2] = assay: Arm-in-cage test on human volunteers; type: in vivo; conditions: arm treated with 20%, three human volunteers
Procedure: The controlling effect, repellence & spatial repellence, according to the present invention is also determined according to an arm in the box method adapted from the WHO Guidelines for efficacy repellents testing of mosquito for human skin (WHO/CDS/NTD/WHOPES/2009.4). The readiness of 100 hungry female mosquitoes A. aegypti to a test substance is assessed by comparing the results of an untreated arm to a treated in when inserted into the cage (40×40×40 cm) for 30 seconds (negative control) three times. Further information is provided in the accompanying examples.
Arm-In-Cage Test is the Large-Scale Test Used to Assess on Human Volunteer the Repellent Efficacy on Mosquitoes.
The Arm in the box method was adapted from the WHO Guidelines for efficacy testing of mosquito repellents for human skin (WHO/CDS/NTD/WHOPES/2009.4). The readiness of 100 hungry female mosquitoes A. aegypti to probe is assessed by inserting an untreated arm into the cage (40×40×40 cm) for 30 seconds (negative control) three times (once at the beginning, once at the fourth hour and once at the eighth hour), to determine probing activity. Then, the product is applied onto the skin of the forearm of a human volunteer (1 mL per 600 cm^2) and after 5 minutes, this arm is inserted into the cage and exposed for 3 minutes. The assay take place in temperature (27±2° C.) and humidity (80±10% RH) regulated room on three different volunteers.

Ixodes ricinus = assay: Warm Plate Assay, tick repellence

Structure (SMILES) | Percentage of repellence of mosquitoes Aedes aegypti landing on the warm body (Aedes aegypti [1]; 0.0032 mg/mL) [%] | Percentage of repellence of mosquitoes Aedes aegypti landing on the warm body (Aedes aegypti [1]; 0.016 mg/mL) [%] | Percentage of repellence of mosquitoes Aedes aegypti landing on the warm body (Aedes aegypti [1]; 0.08 mg/mL) [%] | Percentage of repellence of mosquitoes Aedes aegypti landing on the warm body (Aedes aegypti [1]; 0.4 mg/mL) [%] | Percentage of repellence of mosquitoes Aedes aegypti landing on the warm body (Aedes aegypti [1]; 2 mg/mL) [%] | Percentage of repellence of mosquitoes Aedes aegypti landing on the warm body (Aedes aegypti [1]; 10 mg/mL) [%] | Percentage of repellence of mosquitoes Anopheles gambiae landing on the warm body (Anopheles gambiae; 4.47 mg/mL) [%] | Percentage of repellence of mosquitoes Anopheles gambiae landing on the warm body (Anopheles gambiae; 10 mg/mL) [%] | further results
COc1ccc(CC(C)C=O)cc1 (stereo not shown) [compound 251, 3-(4-methoxyphenyl)-2-methylpropanal] | 0 | 0 | 40 | 79 | 96 | 89 | 100 | 96 | Percentage of repellence of mosquitoes Aedes aegypti landing on the warm body (Aedes aegypti [1]; 0.0071 mg/mL): 0%; Percentage of repellence of mosquitoes Aedes aegypti landing on the warm body (Aedes aegypti [1]; 0.0357 mg/mL): 61%; Percentage of repellence of mosquitoes Aedes aegypti landing on the warm body (Aedes aegypti [1]; 0.053 mg/mL): 54%; Percentage of repellence of mosquitoes Aedes aegypti landing on the warm body (Aedes aegypti [1]; 0.119 mg/mL): 52%; Percentage of repellence of mosquitoes Aedes aegypti landing on the warm body (Aedes aegypti [1]; 0.178 mg/mL): 71%; Percentage of repellence of mosquitoes Aedes aegypti landing on the warm body (Aedes aegypti [1]; 0.267 mg/mL): 97%; Percentage of repellence of mosquitoes Aedes aegypti landing on the warm body (Aedes aegypti [1]; 0.598 mg/mL): 93%; Percentage of repellence of mosquitoes Aedes aegypti landing on the warm body (Aedes aegypti [1]; 0.89 mg/mL): 99%; Percentage of repellence of mosquitoes Aedes aegypti landing on the warm body (Aedes aegypti [1]; 4.47 mg/mL): 97%; percentage of repellence compared to untreated arm (mean ± SD) (Aedes aegypti [2]; 5 min post-application): 100% ±; percentage of repellence compared to untreated arm (mean ± SD) (Aedes aegypti [2]; 1 h post-application): 99.84% ±; percentage of repellence compared to untreated arm (mean ± SD) (Aedes aegypti [2]; 2 h post-application): 98.82% ±; percentage of repellence compared to untreated arm (mean ± SD) (Aedes aegypti [2]; 3 h post-application): 95.59% ±; percentage of repellence compared to untreated arm (mean ± SD) (Aedes aegypti [2]; 4 h post-application): 87.3% ±; percentage of repellence compared to untreated arm (mean ± SD) (Aedes aegypti [2]; 5 h post-application): 81.02% ±; percentage of repellence compared to untreated arm (mean ± SD) (Aedes aegypti [2]; 6 h post-application): 73.75% ±; percentage of repellence compared to untreated arm (mean ± SD) (Aedes aegypti [2]; 7 h post-application): 65.56% ±; percentage of repellence compared to untreated arm (mean ± SD) (Aedes aegypti [2]; 8 h post-application): 64.04% ±
CC(C)(C)c1ccc(CCC=O)cc1 [compound 294, 3-(4-tert-butylphenyl)propanal] | – | 57 | – | 54 | – | 96 | 96 | 96 | reduction of the number of mosquito landing (Aedes aegypti [1]): by half; Percentage of repellence of mosquitoes Anopheles gambiae landing on the warm body (Anopheles gambiae; 0.178 mg/mL): 42%; Percentage of repellence of mosquitoes Anopheles gambiae landing on the warm body (Anopheles gambiae; 0.267 mg/mL): 14%; Percentage of repellence of mosquitoes Anopheles gambiae landing on the warm body (Anopheles gambiae; 0.4 mg/mL): 55%
COC(C)(C)c1ccc(CCC=O)cc1 [compound 681, 3-[4-(2-methoxy-2-propanyl)phenyl]propanal] | 0 | 0 | 31 | 49 | 89 | 92 | – | – | Percentage of repellence of ticks Ixodes ricinus on the warm plate (Ixodes ricinus; 0.08 mg/mL): 0.0%; Percentage of repellence of ticks Ixodes ricinus on the warm plate (Ixodes ricinus; 0.4 mg/mL): 13.3%; Percentage of repellence of ticks Ixodes ricinus on the warm plate (Ixodes ricinus; 2 mg/mL): 92.3%; Percentage of repellence of ticks Ixodes ricinus on the warm plate (Ixodes ricinus; 10 mg/mL): 92.0%; repellence of ticks Ixodes ricinus (Ixodes ricinus; 0.2% of stimulus applied): above 90%; repellence of ticks Ixodes ricinus (Ixodes ricinus; 1% of stimulus applied): above 90%
Cc1cc(C(C)(C)C)ccc1CCC=O [compound 859, 3-[2-methyl-4-(2-methyl-2-propanyl)phenyl] propanal] | – | 21 | – | 65 | – | 98 | – | – | –
CC(C)(O)Cc1ccc(CCC=O)cc1 [compound 867, 3-[4-(2-hydroxy-2-methylpropyl)phenyl]propanal] | – | 13 | – | 27 | – | 81 | – | – | –
COC(C)(C)c1ccc(CCC=O)c(C)c1 [compound 875, 3-[4-(2-methoxy-2-propanyl)-2-methylphenyl]propanal] | 39 | 60 | 24 | 81 | 81 | 96 | 97 | 100 | reduction of the number of mosquito landing (Aedes aegypti [1]): by half; Percentage of repellence of mosquitoes Anopheles gambiae landing on the warm body (Anopheles gambiae; 0.178 mg/mL): 69%; Percentage of repellence of mosquitoes Anopheles gambiae landing on the warm body (Anopheles gambiae; 0.267 mg/mL): 66%; Percentage of repellence of mosquitoes Anopheles gambiae landing on the warm body (Anopheles gambiae; 0.4 mg/mL): 93%; mosquitoes repelled (Anopheles gambiae; lowest concentration tested, 0.0178%): > 60%
CC(C)c1cccc(C(C)CC=O)c1 (stereo not shown) [compound 1389, 3-(3-propan-2-ylphenyl)butanal] | 11 | 0 | 53 | 81 | 87 | 90 | 58 | 96 | Percentage of repellence of mosquitoes Aedes aegypti landing on the warm body (Aedes aegypti [1]; 0.0357 mg/mL): 8%; Percentage of repellence of mosquitoes Aedes aegypti landing on the warm body (Aedes aegypti [1]; 0.053 mg/mL): 74%; Percentage of repellence of mosquitoes Aedes aegypti landing on the warm body (Aedes aegypti [1]; 0.178 mg/mL): 30%; Percentage of repellence of mosquitoes Aedes aegypti landing on the warm body (Aedes aegypti [1]; 0.89 mg/mL): 88%; Percentage of repellence of mosquitoes Aedes aegypti landing on the warm body (Aedes aegypti [1]; 4.47 mg/mL): 84%
